Values of other authors, collected in patent US20260024640A1, “SYSTEM AND METHOD I[…] COMPUTER FOR THE CONTROL OF […] THROUGH FUZZY CONTROL” (SmartTIVA Inc, priority 2022, published 2026).
Where two headings read alike, the source gives them in different places.

Columns and labels:
[1] = Marsh
[2] = Schnider
[3] = General Model (LBM calculated by weight, age, gender)

SMILES: CC(C)c1cccc(C(C)C)c1O [Propofol]
- V1 ([1]; 70 kg): 15.9 L
- k21 ([1]; 70 kg): 0.055 min⁻¹
- k31 ([1]; 70 kg): 0.0033 min⁻¹
- keo ([1]; 70 kg): 0.26 min⁻¹
- V1 ([1]; General Model): 0.228 L/kg
- k21 ([1]; General Model): 0.055 min⁻¹
- k31 ([1]; General Model): 0.0033 min⁻¹
- keo ([1]; General Model): 0.26 min⁻¹
- V1 ([2]; 70 kg, male, height: 170 cm): 4.27 L
- k13 ([2]; 70 kg, male, height: 170 cm): 0.196 min⁻¹
- k21 ([2]; 70 kg, male, height: 170 cm): 0.067 min⁻¹
- keo ([2]; 70 kg, male, height: 170 cm): 0.456 min⁻¹
- V1 [2, 3]: 4.27 L
- k13 [2, 3]: 0.196 min⁻¹
- keo [2, 3]: 0.456 min⁻¹
